In patent publication US20070117770A1, “Human ribosomal DNA (rDNA) and ribosomal RNA (rRNA) nucleic acids and uses thereof” (Cylene Pharmaceuticals, Inc., priority 2005, published 2007):

Tests used:
Assay in all cases: Protein kinase inhibition assay
Type in all cases: biochemical
ALK4(h) = ALK4(h) (Homo sapiens, UniProt P36896); settings: read-out: percent residual activity of ALK4(h)
Description: (§1) Certain compounds were tested for activity in protein kinase inhibition assays. All substrates were dissolved and diluted to working stocks in de-ionized water, apart from histone H1 (10× working stock in 20 mM MOPS pH 7.0), PDKtide (10× working stock in 50 mM Tris pH 7.0) ATF2 (which is typically stored at a 20× working stock in 50 mM Tris pH 7.5, 150 mM NaCl, 0.1 mM EGTA, 0.03% Brij-35, 50% glycerol, 1 mM benzamidine, 0.2 mM PMSF and 0.1% R-mercaptoethanol), KKLNRTLSFAEPG (SEQ ID NO:203) and RRRLSFAEPG (SEQ ID NO:204) (50 mM HEPES pH 7.4) and GGEEEEYFELVKKKK (SEQ ID NO:205) (20 mM MOPS pH 7.0). All kinases were pre-diluted to a 10× working concentration prior to addition into the assay. The composition of the dilution buffer for each kinase is detailed below.
(§2) In a final reaction volume of 25 μl, ALK4 (h) (5-10 mU) is incubated with 8 mM MOPS pH 7.0, 0.2 mM EDTA, 2 mg/ml casein, 10 mM MgAcetate and [gamma-33P-ATP] (specific activity approx. 500 cpm/pmol, concentration as required). The reaction is initiated by the addition of the MgATP mix. After incubation for 40 minutes at room temperature, the reaction is stopped by the addition of 5 μl of a 3% phosphoric acid solution. 10 μl of the reaction is then spotted onto a P30 filtermat and washed three times for 5 minutes in 75 mM phosphoric acid and once in methanol prior to drying and scintillation counting.

CDK3/cyclinE(h) = CDK3/cyclinE(h) (Homo sapiens, UniProt Q00526); settings: read-out: percent residual activity of CDK3/cyclinE(h)
Sequence of CDK3/cyclinE(h) (Q00526 whole entry): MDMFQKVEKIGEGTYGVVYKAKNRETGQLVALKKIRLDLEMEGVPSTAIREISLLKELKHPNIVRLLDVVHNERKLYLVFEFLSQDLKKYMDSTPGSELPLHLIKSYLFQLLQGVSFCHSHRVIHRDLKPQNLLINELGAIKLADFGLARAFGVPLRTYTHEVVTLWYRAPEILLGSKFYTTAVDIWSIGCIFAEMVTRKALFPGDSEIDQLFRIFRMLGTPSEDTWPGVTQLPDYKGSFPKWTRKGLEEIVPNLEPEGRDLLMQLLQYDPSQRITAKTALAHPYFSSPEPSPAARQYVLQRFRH
Sequence of CDK3/cyclinE(h) (P24864 whole entry partner): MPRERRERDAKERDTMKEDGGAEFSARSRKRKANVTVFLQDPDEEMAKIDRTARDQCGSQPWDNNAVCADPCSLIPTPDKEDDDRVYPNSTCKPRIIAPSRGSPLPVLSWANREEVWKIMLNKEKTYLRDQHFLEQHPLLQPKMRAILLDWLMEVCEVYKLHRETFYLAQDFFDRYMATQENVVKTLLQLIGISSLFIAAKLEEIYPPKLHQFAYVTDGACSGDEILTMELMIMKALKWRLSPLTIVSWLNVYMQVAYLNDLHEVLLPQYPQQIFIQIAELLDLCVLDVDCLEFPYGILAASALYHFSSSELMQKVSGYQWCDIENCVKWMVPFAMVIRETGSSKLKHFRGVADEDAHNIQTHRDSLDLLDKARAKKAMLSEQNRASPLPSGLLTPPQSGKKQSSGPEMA
Description: as §1
as §2, with “μl, CDK3/cyclinE” for “μl, ALK4”, “EDTA, 0.1” for “EDTA, 2”, “mg/ml histone H1,” for “mg/ml casein,”

EphA3(h) = EphA3(h) (Homo sapiens, UniProt P29320); settings: read-out: percent residual activity of EphA3(h)
Sequence of EphA3(h) (P29320 21-983): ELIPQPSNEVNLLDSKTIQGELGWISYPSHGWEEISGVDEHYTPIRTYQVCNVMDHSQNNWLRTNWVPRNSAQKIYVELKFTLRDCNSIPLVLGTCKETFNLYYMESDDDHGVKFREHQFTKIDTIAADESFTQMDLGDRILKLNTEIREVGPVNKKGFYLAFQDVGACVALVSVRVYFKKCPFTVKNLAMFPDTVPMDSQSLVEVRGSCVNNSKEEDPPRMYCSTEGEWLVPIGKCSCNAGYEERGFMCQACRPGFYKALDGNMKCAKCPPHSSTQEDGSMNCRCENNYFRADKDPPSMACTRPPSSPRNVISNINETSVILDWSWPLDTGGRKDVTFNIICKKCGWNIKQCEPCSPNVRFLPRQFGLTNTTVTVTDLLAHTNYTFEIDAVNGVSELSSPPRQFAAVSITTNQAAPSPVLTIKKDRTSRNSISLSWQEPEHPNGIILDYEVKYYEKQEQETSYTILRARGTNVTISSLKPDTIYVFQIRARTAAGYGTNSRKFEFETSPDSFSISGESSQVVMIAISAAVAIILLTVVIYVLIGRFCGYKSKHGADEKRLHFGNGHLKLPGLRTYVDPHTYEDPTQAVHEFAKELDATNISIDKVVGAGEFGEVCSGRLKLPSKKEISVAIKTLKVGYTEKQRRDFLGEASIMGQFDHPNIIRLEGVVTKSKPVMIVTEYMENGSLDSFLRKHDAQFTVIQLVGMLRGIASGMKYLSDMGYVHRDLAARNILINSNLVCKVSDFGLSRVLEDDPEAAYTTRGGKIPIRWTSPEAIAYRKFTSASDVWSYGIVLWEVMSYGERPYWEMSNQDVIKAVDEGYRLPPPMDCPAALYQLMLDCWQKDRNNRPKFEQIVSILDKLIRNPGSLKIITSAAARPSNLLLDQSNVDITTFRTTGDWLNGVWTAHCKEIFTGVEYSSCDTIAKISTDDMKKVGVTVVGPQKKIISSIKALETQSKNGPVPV
Description: as §1
as §2, with “μl, EphA3” for “μl, ALK4”, “EDTA, 0.1” for “EDTA, 2”, “mg/ml poly(Glu, Tyr) 4:1,” for “mg/ml casein,”, “a Filtermat A” for “a P30 filtermat”

NEK6(h) = NEK6(h) (Homo sapiens, UniProt Q9HC98); settings: read-out: percent residual activity of NEK6(h)
Sequence of NEK6(h) (Q9HC98 whole entry): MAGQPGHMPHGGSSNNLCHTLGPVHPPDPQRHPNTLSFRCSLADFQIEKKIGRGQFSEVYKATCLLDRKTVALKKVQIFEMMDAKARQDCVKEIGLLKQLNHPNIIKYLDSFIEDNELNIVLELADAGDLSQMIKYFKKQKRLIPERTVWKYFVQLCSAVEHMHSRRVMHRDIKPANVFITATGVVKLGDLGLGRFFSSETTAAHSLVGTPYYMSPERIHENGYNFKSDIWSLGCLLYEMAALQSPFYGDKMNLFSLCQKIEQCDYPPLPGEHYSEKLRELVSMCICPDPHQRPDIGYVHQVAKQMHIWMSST
Description: as §1
as §2, with “NEK6” for “ALK4”, “300 μM FLAKSFGSPNRAYKK (SEQ ID NO:221),” for “2 mg/ml casein,”

NEK7(h) = NEK7(h) (Homo sapiens, UniProt Q8TDX7); settings: read-out: percent residual activity of NEK7(h)
Sequence of NEK7(h) (Q8TDX7 whole entry): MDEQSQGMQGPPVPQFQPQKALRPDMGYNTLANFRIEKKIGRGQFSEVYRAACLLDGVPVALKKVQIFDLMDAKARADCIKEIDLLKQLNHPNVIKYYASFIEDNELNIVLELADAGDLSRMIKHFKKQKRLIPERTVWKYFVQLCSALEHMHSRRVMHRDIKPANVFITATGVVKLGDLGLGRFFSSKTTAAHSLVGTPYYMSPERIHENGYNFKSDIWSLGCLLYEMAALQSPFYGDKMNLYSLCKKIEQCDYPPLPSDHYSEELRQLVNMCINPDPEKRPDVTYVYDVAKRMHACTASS
Description: as §1
as §2, with “μl, NEK7” for “μl, ALK4”, “EDTA, 300 μM FLAKSFGSPNRAYKK (SEQ ID NO:221),” for “EDTA, 2 mg/ml casein,”, “10 pi” for “10 μl”

SGK2(h) = SGK2(h) (Homo sapiens, UniProt Q9HBY8); settings: read-out: percent residual activity of SGK2(h)
Sequence of SGK2(h) (Q9HBY8 whole entry): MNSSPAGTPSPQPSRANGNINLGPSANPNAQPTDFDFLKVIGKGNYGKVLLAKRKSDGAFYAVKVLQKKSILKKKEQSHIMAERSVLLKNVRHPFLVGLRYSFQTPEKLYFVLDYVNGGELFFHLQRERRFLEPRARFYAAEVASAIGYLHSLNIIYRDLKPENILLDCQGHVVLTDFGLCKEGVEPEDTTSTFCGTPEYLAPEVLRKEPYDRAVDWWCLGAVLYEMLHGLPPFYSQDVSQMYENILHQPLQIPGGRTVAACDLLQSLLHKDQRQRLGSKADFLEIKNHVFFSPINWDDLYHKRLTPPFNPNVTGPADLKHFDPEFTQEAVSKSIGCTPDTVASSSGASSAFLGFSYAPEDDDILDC
Description: as §1
as §2, with “SGK2” for “ALK4”, “30 μM GRPRTSSFAEGKK (SEQ ID NO:226),” for “2 mg/ml casein,”

Sequence of ALK4(h) (P36896 24-505): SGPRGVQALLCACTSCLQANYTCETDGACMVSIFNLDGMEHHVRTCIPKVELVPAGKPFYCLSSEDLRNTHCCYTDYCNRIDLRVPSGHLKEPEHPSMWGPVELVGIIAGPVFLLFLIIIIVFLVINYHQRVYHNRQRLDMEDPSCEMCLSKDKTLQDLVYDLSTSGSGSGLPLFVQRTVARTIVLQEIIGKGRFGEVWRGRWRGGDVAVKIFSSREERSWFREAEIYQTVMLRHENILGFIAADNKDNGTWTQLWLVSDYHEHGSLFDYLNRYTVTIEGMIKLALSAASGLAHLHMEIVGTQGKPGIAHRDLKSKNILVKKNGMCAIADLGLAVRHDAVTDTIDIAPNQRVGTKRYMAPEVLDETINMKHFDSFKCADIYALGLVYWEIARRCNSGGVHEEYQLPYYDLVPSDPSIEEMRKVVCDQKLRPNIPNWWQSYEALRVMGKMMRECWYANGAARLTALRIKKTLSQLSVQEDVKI

remaining activity at 2.5 µM (ALK4(h)) [%]	remaining activity at 2.5 µM (CDK3/cyclinE(h)) [%]	remaining activity at 2.5 µM (EphA3(h)) [%]	remaining activity at 2.5 µM (NEK6(h)) [%]	remaining activity at 2.5 µM (NEK7(h)) [%]	remaining activity at 2.5 µM (SGK2(h)) [%]	Structure (SMILES)
108	93	91	78	102	38	CN1CCCC1CCNC(=O)c1cn2c3c(c(N4CCC(c5cnccn5)C4)c(F)cc3c1=O)Oc1cc3ccccc3cc1-2 (stereo not drawn) [Compound A-1]
103	103	118	111	101	104	CC(=O)N1CCN(c2ccc3c(=O)c(C(=O)NCCN4CCCC4)c4n(C)c5ccccc5n4c3n2)CC1 [Compound B-1]
